Data set [1] deals with A2 receptor. The settings on record: background section; cited from earlier work.
For the next data set, the system named is A1 and A2 receptors. The following applies: selectivity, background section; cited from earlier work.
The next data set addresses T1, A1 receptor (Rattus norvegicus, UniProt P25099).
T1 construct: using a membrane preparation of whole rat brain; from tissue; host or cells: whole rat brain membranes
T1 sequence (P25099 1-326): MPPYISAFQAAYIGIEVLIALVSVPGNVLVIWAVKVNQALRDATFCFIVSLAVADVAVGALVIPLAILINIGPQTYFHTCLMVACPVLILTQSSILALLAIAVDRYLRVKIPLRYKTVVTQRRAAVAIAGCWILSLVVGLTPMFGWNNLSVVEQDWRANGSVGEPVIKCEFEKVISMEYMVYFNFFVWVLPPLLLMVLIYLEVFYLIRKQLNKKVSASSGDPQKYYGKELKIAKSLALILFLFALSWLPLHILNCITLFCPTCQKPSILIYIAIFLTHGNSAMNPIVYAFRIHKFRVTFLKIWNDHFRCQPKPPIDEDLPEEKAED
Nature of the data set: A1 adenosine receptor binding, displacement of 3H-CHA, whole rat brain membranes. The following applies: 3H-CHA displacement, 25° C., 60 minutes.

Data set [2] has as its target T2, A2 receptor (Rattus norvegicus, UniProt P30543).
T2 construct: using membranes from rat brain striatum; from tissue; host or cells: rat brain striatum membranes
Nature of the data set: A2 adenosine receptor binding, displacement of 3H-CGS 21680, rat brain striatum membranes. The settings on record: 3H-CGS 21680 displacement, rat brain striatum membranes, 25° C., 90 minutes; read-out: Adenosine Receptor Binding Activity/IC50 (nM) A2.

The subject of the next data set is swine coronary arteries. Nature of the data set: In vitro vasorelaxation in isolated swine coronary arteries. The data set is classed as cell-based. The following applies: Sus scrofa, read-out: Vasorelaxation in Swine Coronary Artery/IC50 (μM). The protocol: Swine coronary arteries are obtained from a local slaughter house, dissected carefully and cleaned of fat, blood and adhering tissue. Rings approximately 2-3 mm wide are cut and transferred to water-jacketed tissue baths (10 mL) filled with warm (37° C.), oxygenated (O2/CO2:95%/5%) Krebs-Henseleit buffer and mounted on L-shaped hooks between stainless steel rods and a force transducer. […] PGF2a, before being exposed to 3 μM PGF2a.

In data set [3] the test system is normotensive anesthetized rat. Nature of the data set: Mean arterial blood pressure and heart rate in normotensive anesthetized rat. The data set is classed as in vivo. The protocol: Normotensive rats are anesthetized with sodium pentobarbital (50 mg/kg, i.p.) and placed on a heated surgical table. Cannulas are inserted into the femoral artery and veined to allow the measurement of arterial pressure and to facilitate the intravenous administration of test compounds. The animals are allowed to equilibrate for 10 minutes after surgery. Mean arterial pressure is continuously measured and recorded and heart rate is monitored using the arterial pressure pulse to trigger a cardiotachometer. After baseline parameters are established and recorded, increasing doses (1, 3, 10, 30, 100, 300 and 1000 μg/kg) of the compound of Formula I to be tested are administered intravenously. Maximal changes in the cardiovascular parameters are observed after each dose of the adenosine agonist. Only one compound is administered per rat.

The test system of data set [4] is spontaneously hypertensive rat (SHR). Nature of the data set: Oral antihypertensive activity in conscious spontaneously hypertensive rat (SHR). The data set is classed as in vivo. The settings on record: single oral dose 5 mg/kg, D signifies decrease, I signifies increase. As to the method: The oral antihypertensive activity of compounds of Formula I are examined in conscious spontaneously hypertensive rats. The rats are anesthetized with sodium phenobarbitol (50 mg/kg i.p.). A telemetry transducer is implanted into the rats abdomen via midline incision. The cannula of the transducer is inserted into the abdominal aorta to allow direct measurement of arterial pressure in the conscious SHR. The transducer is secured to the abdominal wall. After recovery from surgery (minimum of seven days), the SHR are placed on a receiver plate and the transducer/transmitter is activated. Systolic, diastolic and mean arterial pressure and heart rate are recorded for 1.5 hours in the unrestrained conscious rat to establish a stable baseline. Each rat then received a single dose of the compound of Formula I to be tested, or vehicle, and changes in arterial pressure and heart rate are monitored for 20 hours and recorded.

T2 sequence (P30543 whole entry): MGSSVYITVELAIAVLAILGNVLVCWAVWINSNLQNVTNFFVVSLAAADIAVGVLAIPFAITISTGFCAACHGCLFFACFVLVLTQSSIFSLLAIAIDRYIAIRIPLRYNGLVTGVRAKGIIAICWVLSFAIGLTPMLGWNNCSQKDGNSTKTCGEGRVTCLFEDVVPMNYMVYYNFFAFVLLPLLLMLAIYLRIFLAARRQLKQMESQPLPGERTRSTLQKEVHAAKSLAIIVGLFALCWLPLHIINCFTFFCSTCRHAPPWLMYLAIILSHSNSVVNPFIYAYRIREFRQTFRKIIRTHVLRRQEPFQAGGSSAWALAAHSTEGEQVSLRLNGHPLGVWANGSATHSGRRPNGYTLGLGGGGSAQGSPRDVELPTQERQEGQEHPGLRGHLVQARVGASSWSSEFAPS

With `Nc1nc(Nc2ccccc2)nc2c1ncn2[C@@H]1O[C@H](CO)[C@@H](O)[C@H]1O` [CV-1808], the “fold less potent than NECA in affinity for the A2 receptor” value with A2 receptor [1] is listed as 10 fold. For the same molecule, the A2/A1 ratio in the data set with A1 and A2 receptors was 0.19.

Take `OC[C@H]1O[C@@H](n2cnc3c(N[C@@H]4CC=CC[C@H]4c4cccs4)ncnc32)[C@H](O)[C@@H]1O` (relative stereo) [Example 4, N6-[trans-2-(thiophen-2-yl)cyclohex-4-en-yl]adenosine]: the melting point was in the range of 105 to 110 °C. The IC50 on A1 receptor worked out at 1.66 nM. Also, on A2 receptor [2], the IC50 was 55 nM. In the data set with swine coronary arteries, the IC50 was 0.73 µM. In addition, the “Anesthetized Rat HR/ED25” value in data set [3] (intravenous dose lowering heart rate by 25%) was found to be 0.019 mg/kg. The “Anesthetized Rat MAP/ED25” value in data set [3] (intravenous dose lowering mean arterial pressure by 25%) turned out to be 0.013 mg/kg. In data set [4], the “SHR HR/%” value is reported as 20 (D) % and the “SHR MAP/%” value is 28 (D) %.

The values are drawn from patent US6392049B1, “Process for preparing 2,4-dihydroxypyridine and 2,4-dihydroxy-3-nitropyridine” (Aventis Pharmaceuticals Inc., priority 1996, dated 2002).
